These results are taken from patent publication US20050227999A1, “Diarylamine derivatives as calcium channel blockers” (NeuroMed Technologies Inc., priority 2004, published 2005).

Experiment [1] addresses T1, human α1G T-type channels (Homo sapiens, UniProt O43497).
T1 construct: expressed in transfected cells
Briefly: T-type calcium channel block, patch clamp in HEK cell lines. The format is cell-based. The method, then:
Standard patch-clamp techniques were employed to identify blockers of T-type currents. Briefly, previously described HEK cell lines stably expressing human α1G T-type channels were used for all the recordings (passage #: 4-20, 37° C., 5% CO2). To obtain T-type currents, plastic dishes containing semi-confluent cells were positioned on the stage of a ZEISS AXIOVERT S100 microscope after replacing the culture medium with external solution (see below). Whole-cell patches were obtained using pipettes (borosilicate glass with filament, O.D.: 1.5 mm, I.D.: 0.86 mm, 10 cm length), fabricated on a SUTTER P-97 puller with resistance values of ˜5 MΩ (see below for internal solution).
In the non-inactivating protocol, the holding potential is set at −110 mV and with a pre-pulse at −100 mV for 1 second prior to the test pulse at 40 mV for 50 ms. […]
Test compounds were dissolved in external solution, 0.1-0.01% DMSO. After ˜10 min rest, they were applied by gravity close to the cell using a WPI microfil tubing. The “non-inactivated” pre-pulse was used to examine the resting block of a compound. The “inactivated” protocol was employed to study voltage-dependent block. However, the initial data shown below were mainly obtained using the non-inactivated protocol only. IC50 values are shown for various compounds of the invention in Table 4.
A general note: The patch-clamp technique gives a direct electrical read-out from membranes.

Experiment [2] concerns the target T2, rat brain N-type calcium channel subunits (α1B+α2δ+β1b cDNA subunits) (Rattus norvegicus, UniProt Q02294).
T2 construct: expressed in transfected cells; host or cells: HEK 293
Kind of experiment: N-type calcium channel block, whole cell patch clamp in transfected HEK 293 cells. The note with it: holding potential −80 mV to +10 mV. The format is cell-based. The method, then:
N-type calcium channel blocking activity was assayed in human embryonic kidney cells, HEK 293, stably transfected with the rat brain N-type calcium channel subunits (α1B+α2δ+β1b cDNA subunits). Alternatively, N-type calcium channels (α1B+α2δ+β1b cDNA subunits), L-type channels (α1C+δ+β1b cDNA subunits) and P/Q-type channels (α1A+α2δ+β1b cDNA subunits) were transiently expressed in HEK 293 cells. Briefly, cells were cultured in Dulbecco's modified eagle medium (DMEM) supplemented with 10% fetal bovine serum, 200 U/ml penicillin and 0.2 mg/ml streptomycin at 37° C. with 5% CO2. At 85% confluency cells were split with 0.25% trypsin/l mM EDTA and plated at 10% confluency on glass coverslips. At 12 hours the medium was replaced and the cells transiently transfected using a standard calcium phosphate protocol and the appropriate calcium channel cDNA's. Fresh DMEM was supplied and the cells transferred to 28° C./5% CO2. Cells were incubated for 1 to 2 days before cell recording.
Whole cell patch clamp experiments were performed using an Axopatch 200B amplifier (Axon Instruments, Burlingame, Calif.) linked to a personal computer equipped with PCLAMP software. The external and internal recording solutions contained, respectively, 5 mM BaCl2, 10 mM MgCl2, 10 mM HEPES, 40 mM TEACl, 10 mM glucose, 87.5 mM CsCl (pH 7.2) and 108 mM CsMS, 4 mM MgCl2, 9 mM EGTA, 9 mM HEPES (pH 7.2). Currents were typically elicited from a holding potential of −80 mV to +10 mV using Clampex software (Axon Instruments). Typically, currents were first elicited with low frequency stimulation (0.067 Hz) and allowed to stabilize prior to application of the compounds. The compounds were then applied during the low frequency pulse trains for two to three minutes to assess tonic block, and subsequently the pulse frequency was increased to 0.2 Hz to assess frequency dependent block. Data were analyzed using Clampfit (Axon Instruments) and SigmaPlot 4.0 (Jandel Scientific). […]

The mark [3] stands for this setting: −80 mV (inactivation protocol, voltage-dependent block), read-out: IC50 - 80 mV.
The mark [4] stands for this setting: −100 mV pre-pulse (non-inactivating protocol, resting block), read-out: IC50 - 100 mV.
Where [5] appears, read: low frequency stimulation 0.067 Hz (tonic block), read-out: IC50 @ 0.067 Hz.
Setting [6] is: pulse frequency 0.2 Hz (frequency dependent block), read-out: IC50 @ 0.2 Hz.
[7] abbreviates: −100 mV pre-pulse (non-inactivating protocol, resting block).

Read-outs that look alike come from different tables or passages of the source.

T2 sequence (Q02294 whole entry): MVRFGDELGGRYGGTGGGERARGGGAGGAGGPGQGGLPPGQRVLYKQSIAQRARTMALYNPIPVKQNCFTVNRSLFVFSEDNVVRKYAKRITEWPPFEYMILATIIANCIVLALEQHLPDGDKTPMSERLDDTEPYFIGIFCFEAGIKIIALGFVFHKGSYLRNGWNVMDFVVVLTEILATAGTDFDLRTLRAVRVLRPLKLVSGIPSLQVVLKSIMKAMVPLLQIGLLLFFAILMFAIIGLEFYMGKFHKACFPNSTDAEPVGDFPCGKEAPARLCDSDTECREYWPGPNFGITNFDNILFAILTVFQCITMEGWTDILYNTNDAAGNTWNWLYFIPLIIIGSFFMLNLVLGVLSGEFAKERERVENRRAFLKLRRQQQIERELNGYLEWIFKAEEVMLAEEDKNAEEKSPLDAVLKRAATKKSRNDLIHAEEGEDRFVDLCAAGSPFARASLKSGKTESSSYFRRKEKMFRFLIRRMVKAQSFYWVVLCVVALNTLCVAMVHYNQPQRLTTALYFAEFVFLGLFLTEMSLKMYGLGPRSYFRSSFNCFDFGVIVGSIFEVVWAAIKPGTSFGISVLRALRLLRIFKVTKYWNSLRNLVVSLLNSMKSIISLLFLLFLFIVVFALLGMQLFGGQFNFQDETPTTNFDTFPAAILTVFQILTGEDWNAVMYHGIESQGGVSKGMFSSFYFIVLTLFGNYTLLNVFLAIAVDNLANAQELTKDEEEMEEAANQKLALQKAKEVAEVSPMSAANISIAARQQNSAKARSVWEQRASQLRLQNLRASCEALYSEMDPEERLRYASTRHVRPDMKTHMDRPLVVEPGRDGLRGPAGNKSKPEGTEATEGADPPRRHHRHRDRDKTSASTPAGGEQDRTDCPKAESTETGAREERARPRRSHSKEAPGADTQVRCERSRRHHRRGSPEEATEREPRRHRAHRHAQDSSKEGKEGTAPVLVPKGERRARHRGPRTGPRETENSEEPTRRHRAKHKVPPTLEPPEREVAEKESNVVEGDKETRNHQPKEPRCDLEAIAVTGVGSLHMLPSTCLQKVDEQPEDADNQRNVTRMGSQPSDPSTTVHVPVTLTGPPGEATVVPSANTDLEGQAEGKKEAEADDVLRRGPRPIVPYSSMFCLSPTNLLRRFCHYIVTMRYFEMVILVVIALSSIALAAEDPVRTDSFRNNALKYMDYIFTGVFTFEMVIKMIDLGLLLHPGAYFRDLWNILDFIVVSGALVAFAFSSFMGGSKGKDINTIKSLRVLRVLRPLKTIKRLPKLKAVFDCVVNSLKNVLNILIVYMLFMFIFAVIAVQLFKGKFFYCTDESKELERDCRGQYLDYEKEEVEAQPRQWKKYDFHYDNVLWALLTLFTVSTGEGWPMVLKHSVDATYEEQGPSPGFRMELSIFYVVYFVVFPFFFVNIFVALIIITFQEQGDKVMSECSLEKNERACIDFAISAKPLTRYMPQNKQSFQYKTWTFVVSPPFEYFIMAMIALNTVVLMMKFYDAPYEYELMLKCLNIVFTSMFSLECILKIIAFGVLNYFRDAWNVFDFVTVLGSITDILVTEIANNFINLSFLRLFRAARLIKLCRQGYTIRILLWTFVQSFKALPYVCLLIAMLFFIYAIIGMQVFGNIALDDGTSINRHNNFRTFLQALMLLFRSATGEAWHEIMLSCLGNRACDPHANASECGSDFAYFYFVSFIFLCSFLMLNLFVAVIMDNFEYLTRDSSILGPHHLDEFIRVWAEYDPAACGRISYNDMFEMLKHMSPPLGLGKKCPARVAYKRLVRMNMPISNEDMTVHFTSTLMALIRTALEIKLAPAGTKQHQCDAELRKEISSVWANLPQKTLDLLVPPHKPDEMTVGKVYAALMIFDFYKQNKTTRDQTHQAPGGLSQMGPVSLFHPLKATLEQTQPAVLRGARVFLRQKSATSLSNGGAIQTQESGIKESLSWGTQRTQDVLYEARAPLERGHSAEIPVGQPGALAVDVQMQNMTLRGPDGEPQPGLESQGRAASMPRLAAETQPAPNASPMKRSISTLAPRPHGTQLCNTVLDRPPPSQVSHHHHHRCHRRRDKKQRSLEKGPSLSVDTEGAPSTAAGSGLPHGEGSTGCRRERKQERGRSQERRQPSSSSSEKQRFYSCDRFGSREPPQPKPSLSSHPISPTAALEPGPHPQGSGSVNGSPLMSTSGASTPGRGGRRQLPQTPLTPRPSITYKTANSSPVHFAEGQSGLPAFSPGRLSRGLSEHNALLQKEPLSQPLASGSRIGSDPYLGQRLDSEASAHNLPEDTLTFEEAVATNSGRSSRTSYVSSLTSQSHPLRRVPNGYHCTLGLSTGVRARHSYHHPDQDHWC
T2 sequence (P54290 25-944 partner limits assumed): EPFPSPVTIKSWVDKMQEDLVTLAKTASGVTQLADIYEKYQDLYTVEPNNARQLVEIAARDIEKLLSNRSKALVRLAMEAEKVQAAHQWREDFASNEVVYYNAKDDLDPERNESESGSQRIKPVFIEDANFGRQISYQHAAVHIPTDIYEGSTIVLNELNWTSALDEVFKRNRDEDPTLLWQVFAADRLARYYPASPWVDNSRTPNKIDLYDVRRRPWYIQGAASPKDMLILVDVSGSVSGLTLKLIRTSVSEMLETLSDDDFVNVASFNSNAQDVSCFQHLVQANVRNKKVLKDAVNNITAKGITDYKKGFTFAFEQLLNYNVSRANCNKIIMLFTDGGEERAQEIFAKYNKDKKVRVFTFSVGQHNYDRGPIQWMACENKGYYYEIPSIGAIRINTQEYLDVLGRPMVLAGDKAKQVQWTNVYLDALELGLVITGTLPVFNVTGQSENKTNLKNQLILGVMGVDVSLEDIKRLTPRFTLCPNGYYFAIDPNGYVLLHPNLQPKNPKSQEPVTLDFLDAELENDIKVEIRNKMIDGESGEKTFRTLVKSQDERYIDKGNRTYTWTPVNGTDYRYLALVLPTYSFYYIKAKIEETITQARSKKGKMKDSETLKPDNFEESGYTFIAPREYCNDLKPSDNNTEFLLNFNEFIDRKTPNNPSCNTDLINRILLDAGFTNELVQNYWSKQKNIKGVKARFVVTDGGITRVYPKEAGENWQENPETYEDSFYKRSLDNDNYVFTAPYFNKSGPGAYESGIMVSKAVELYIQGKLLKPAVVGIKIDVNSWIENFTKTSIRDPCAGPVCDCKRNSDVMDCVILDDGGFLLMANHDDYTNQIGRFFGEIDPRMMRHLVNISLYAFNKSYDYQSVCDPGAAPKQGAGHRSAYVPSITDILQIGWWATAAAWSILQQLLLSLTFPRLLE
T2 sequence (P54290 945-1091 partner limits assumed): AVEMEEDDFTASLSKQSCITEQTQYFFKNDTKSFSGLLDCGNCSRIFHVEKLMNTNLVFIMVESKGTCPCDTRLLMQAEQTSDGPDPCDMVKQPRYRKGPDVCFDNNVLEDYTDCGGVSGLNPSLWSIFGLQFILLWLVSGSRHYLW
T2 sequence (P54283 whole entry partner): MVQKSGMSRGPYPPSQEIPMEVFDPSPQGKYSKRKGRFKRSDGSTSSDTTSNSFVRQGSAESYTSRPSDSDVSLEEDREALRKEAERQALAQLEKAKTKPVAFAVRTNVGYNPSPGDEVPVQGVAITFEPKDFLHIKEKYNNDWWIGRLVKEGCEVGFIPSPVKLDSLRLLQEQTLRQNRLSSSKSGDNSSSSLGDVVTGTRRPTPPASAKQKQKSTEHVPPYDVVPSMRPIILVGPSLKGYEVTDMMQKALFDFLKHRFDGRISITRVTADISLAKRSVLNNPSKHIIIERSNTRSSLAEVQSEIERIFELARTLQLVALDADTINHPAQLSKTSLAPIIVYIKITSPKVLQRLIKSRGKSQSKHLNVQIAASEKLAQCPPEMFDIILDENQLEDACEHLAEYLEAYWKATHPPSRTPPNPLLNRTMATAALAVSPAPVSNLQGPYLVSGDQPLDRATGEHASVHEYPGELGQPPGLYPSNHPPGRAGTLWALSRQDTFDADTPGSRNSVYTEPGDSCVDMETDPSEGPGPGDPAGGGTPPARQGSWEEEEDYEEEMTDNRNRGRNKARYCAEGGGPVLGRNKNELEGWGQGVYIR

What is called IC50 is the concentration that gives 50% inhibition. Consider `O=C(CN(c1ccccc1)c1ccccc1)N1CCN(C(c2ccccc2)c2ccccc2)CC1` [Compound 1, 1-(4-Benzhydryl-piperazin-1-yl)-2-diphenylamino-ethanone], for which the IC50 in experiment [1] (setting [3]) turned out to be 510 nM; in experiment [1] (setting [4]), 1350 nM; in experiment [2] (setting [5]) it was 6630 nM; in experiment [2] (setting [6]), 6610 nM.

Regarding `Cc1ccc(C(c2ccccc2)N2CCN(C(=O)CN(c3ccccc3)c3ccccc3)CC2)c(C)c1` (stereo not shown) [Compound 2, 1-{4-[(2,4-Dimethyl-phenyl)-phenyl-methyl]-piperazin-1-yl}-2-diphenylamino-ethanone], the IC50 came to 444 nM in experiment [1] (setting [3]), 2000 nM in experiment [1] (setting [4]), 290 nM in experiment [2] (setting [5]) and 260 nM in experiment [2] (setting [6]).

As to `O=C(CN(c1ccccc1)c1ccccc1)N1CCN(C(c2ccccc2)c2ccc(Cl)cc2Cl)CC1` (stereo not shown) [Compound 3, 1-{4-[(2,4-Dichloro-phenyl)-phenyl-methyl]-piperazin-1-yl}-2-diphenylamino-ethanone], the IC50 in experiment [1] (setting [3]) came out at 6000 nM; in experiment [2] (setting [5]) it was 550 nM; in experiment [2] (setting [6]), 460 nM. Moreover, in experiment [1] (setting [7]), the “IC50 - 100 mV” value was “no effect”.

In the case of `O=C(CN(c1ccccc1)c1ccccc1)N1CCN(C(c2ccccc2)c2ccc(Cl)cc2)CC1` (stereo not shown) [Compound 4, 1-{4-[(4-Chloro-phenyl)-phenyl-methyl]-piperazin-1-yl}-2-diphenylamino-ethanone], the IC50 stood at 748 nM in experiment [1] (setting [3]), 3800 nM in experiment [1] (setting [4]), 550 nM in experiment [2] (setting [5]) and 500 nM in experiment [2] (setting [6]).

On to `O=C(CN(c1ccccc1)c1ccccc1)N1CCN(C(c2ccccc2)c2cccc(Cl)c2)CC1` (stereo not shown) [Compound 5, 1-{4-[(3-Chloro-phenyl)-phenyl-methyl]-piperazin-1-yl}-2-diphenylamino-ethanone], for which the IC50 in experiment [1] (setting [3]) came out at 800 nM; in experiment [2] (setting [5]), 310 nM; in experiment [2] (setting [6]), 280 nM. Also, the “IC50 - 100 mV” value in experiment [1] (setting [7]) is listed as “no effect”.

As to `O=C(CN(c1ccccc1)c1ccccc1)N1CCN(C(c2ccccc2)c2ccccc2Cl)CC1` (stereo not shown) [Compound 6, 1-{4-[(2-Chloro-phenyl)-phenyl-methyl]-piperazin-1-yl}-2-diphenylamino-ethanone], the figures for the IC50 in experiment [1] (setting [3]), in experiment [2] (setting [5]) and in experiment [2] (setting [6]) were 1200 nM, 330 nM and 320 nM, respectively. Further, in experiment [1] (setting [7]), the “IC50 - 100 mV” value was “no effect”.

As to `CN1CCCC(CN2CCN(C(=O)CN(c3ccccc3)c3ccccc3)CC2)C1` (stereo not shown) [Compound 10, 2-Diphenylamino-1-[4-(1-methyl-piperidin-3-ylmethyl)-piperazin-1-yl]-ethanone], the IC50 was found to be 2000 nM in experiment [1] (setting [3]), 10000 nM in experiment [1] (setting [4]), 1100 nM in experiment [2] (setting [5]) and 980 nM in experiment [2] (setting [6]).

Turning to `O=C(CN1CCN(C(c2ccccc2)c2ccccc2)CC1)N(c1ccccc1)c1ccccc1` [Compound 16, 2-(4-Benzhydryl-piperazin-1-yl)-N,N-diphenyl-acetamide], the IC50 in experiment [1] (setting [3]) was found to be 1300 nM; in experiment [2] (setting [5]), 290 nM; in experiment [2] (setting [6]), 260 nM. For the same molecule, the “IC50 - 100 mV” value in experiment [1] (setting [7]) was “no effect”.

On to `O=C(CN1CCN(C(c2ccccc2)c2ccc(Cl)cc2Cl)CC1)N(c1ccccc1)c1ccccc1` (stereo not shown) [Compound 17, 2-{4-[(2,4-Dichloro-phenyl)-phenyl-methyl]-piperazin-1-yl}-N,N-diphenyl-acetamide], for which the IC50 in experiment [1] (setting [3]) was 29 nM; in experiment [1] (setting [4]) it was 118 nM; in experiment [2] (setting [5]) it was 830 nM; in experiment [2] (setting [6]) it was 510 nM.

Take `Cc1ccc(C(c2ccccc2)N2CCN(CC(=O)N(c3ccccc3)c3ccccc3)CC2)c(C)c1` (stereo not shown) [Compound 18, 2-{4-[(2,4-Dimethyl-phenyl)-phenyl-methyl]-piperazin-1-yl}-N,N-diphenyl-acetamide]: the IC50 in experiment [1] (setting [3]) worked out at 84 nM; in experiment [1] (setting [4]), 229 nM; in experiment [2] (setting [5]), 1760 nM; in experiment [2] (setting [6]), 1250 nM.

Consider `O=C(CN1CCN(C(c2ccccc2)c2ccc(Cl)cc2)CC1)N(c1ccccc1)c1ccccc1` (stereo not shown) [Compound 19, 2-{4-[(4-Chloro-phenyl)-phenyl-methyl]-piperazin-1-yl}-N,N-diphenyl-acetamide], for which the IC50 is 22 nM in experiment [1] (setting [3]), 72 nM in experiment [1] (setting [4]), 190 nM in experiment [2] (setting [5]) and 110 nM in experiment [2] (setting [6]).

`O=C(CN1CCN(C(c2ccccc2)c2cccc(Cl)c2)CC1)N(c1ccccc1)c1ccccc1` (stereo not shown) [Compound 20, 2-{4-[(3-Chloro-phenyl)-phenyl-methyl]-piperazin-1-yl}-N,N-diphenyl-acetamide]: the 50% inhibitory concentration (IC50) in experiment [1] (setting [3]) worked out at 33 nM; in experiment [1] (setting [4]), 114 nM; in experiment [2] (setting [5]), 340 nM; in experiment [2] (setting [6]), 320 nM.

Regarding `O=C(CN1CCN(C(c2ccccc2)c2ccccc2Cl)CC1)N(c1ccccc1)c1ccccc1` (stereo not shown) [Compound 21, 2-{4-[(2-Chloro-phenyl)-phenyl-methyl]-piperazin-1-yl}-N,N-diphenyl-acetamide], the IC50 in experiment [1] (setting [3]) is 34 nM; in experiment [1] (setting [4]), 134 nM; in experiment [2] (setting [5]) it was 124 nM; in experiment [2] (setting [6]) it was 52 nM.

For `O=C(CN1CCN(C(c2ccccc2)c2cccc(Cl)c2Cl)CC1)N(c1ccccc1)c1ccccc1` (stereo not shown) [Compound 22, 2-{4-[(2,3-Dichloro-phenyl)-phenyl-methyl]-piperazin-1-yl}-N,N-diphenyl-acetamide], the IC50 in experiment [1] (setting [3]) is 16 nM; in experiment [1] (setting [4]) it was 81 nM; in experiment [2] (setting [5]) it was 300 nM; in experiment [2] (setting [6]), 240 nM.

Consider `CN1CCC(CN2CCN(CC(=O)N(c3ccccc3)c3ccccc3)CC2)CC1` [Compound 25, 2-[4-(1-Methyl-piperidin-4-ylmethyl)-piperazin-1-yl]-N,N-diphenyl-acetamide], for which the IC50 in experiment [1] (setting [3]) turned out to be 3700 nM; in experiment [1] (setting [4]), 5700 nM; in experiment [2] (setting [5]) it was 460 nM; in experiment [2] (setting [6]), 460 nM.

As to `CN(C)CCCN1CCN(CC(=O)N(c2ccccc2)c2ccccc2)CC1` [Compound 26, 2-[4-(3-Dimethylamino-propyl)-piperazin-1-yl]-N,N-diphenyl-acetamide], the IC50 in experiment [1] (setting [3]) was 1000 nM; in experiment [2] (setting [5]), 350 nM; in experiment [2] (setting [6]) it was 340 nM. In experiment [1] (setting [7]), the “IC50 - 100 mV” value is on record as “no effect”.
